Experiments:
[1] = test system: preadipocytes / differentiating adipocytes; test: Adipocyte differentiation assay, markers taken together; type: cell-based, human; conditions: for expression levels of markers of adipocyte differentiation (TG, leptin, aP2, HSL, Glut4, PPARγ): preadipocytes, 250 nM, day nine post-transfection, relative to ISIS-29848; for expression of the adipocyte differentiation markers, compounds targeting mir-143 miRNA or pri-miRNA compared: preadipocytes (Table 20)
DIO mice = test: Diet-induced obesity (DIO) mice; type: in vivo; conditions: for liver toxicity (plasma transaminase levels, weekly): 25 mg/kg s.c. twice weekly, 25 mg/kg
Method: As described, supra, the C57BL/6 mouse strain is reported to be susceptible to hyperlipidemia-induced atherosclerotic plaque formation, and when these mice are fed a high-fat diet, they develop diet-induced obesity (DIO). Accordingly, the DIO mouse model is useful for the investigation of obesity and development of agents designed to treat these conditions. In one embodiment of the present invention, oligomeric compounds targeting miRNAs were tested in the DIO model. Normal C57/BL6 male mice were fed a high fat diet (40% fat, 41% carbohydrate, 18% protein) for 12 weeks before the study began. DIO mice were then randomized by weight and insulin values. Initial body fat composition was determined by Dual X-ray Absorptiometry (DEXA) Scan. DIO mice were then subcutaneously injected with oligomeric compounds of the invention at a dose of 25 mg/kg, twice weekly. DIO mice were treated with oligomeric compounds ISIS Numbers 327901 and 340927 targeting mir-143, ISIS Numbers 327892 and 340926 targeting mir-131/mir-9, ISIS Numbers 327878 and ISIS Number 345349 targeting mir-203, and ISIS Numbers 327889 and 340925, targeting mir-23b. […] DEXA scans were also performed at weeks 0, 3 and 5 after treatment with the oligomeric compounds to assess the fat mass to lean mass ratio. The effects of target inhibition on levels of plasma glucose and insulin, liver transaminases, cholesterol and triglycerides, were also assessed weekly by tail bleed, and after the treatment period, mice were sacrificed and liver and kidney heart, as well as white adipose tissue (WAT) tissues collected. The mRNA expression levels of the Glut4, aP2, HSL and PPARγ marker genes are also assessed. […] Furthermore, some improvement in body composition (a reduction in body weight and fat mass) was observed.

Row | Sequence | expression levels of markers of adipocyte differentiation (TG, leptin, aP2, HSL, Glut4, PPARγ) [1] | liver toxicity (plasma transaminase levels, weekly) (DIO mice) | expression of all five markers of differentiation, dose response ([1]; differentiating adipocytes, 50, 100, 200 and 300 nM, 24 hours) | expression of the adipocyte differentiation markers, compounds targeting mir-143 miRNA or pri-miRNA compared [1] | expression of the adipocyte differentiation markers, compounds targeting mir-143 miRNA or pri-miRNA compared ([1]; listed as ISIS 340972) | insulin levels (DIO mice; two and four week time points, vs saline)
1 | ACTTTCGGTTATCTAGCTTTA [ISIS 327892] (chemistry not given here) [uniform 2′-MOE PS; targets mir-131-2/mir-9] | significantly reduce the expression levels of 5 of 6 markers of adipocyte differentiation | did not appear to cause liver toxicity |  |  |  | 
2 | TGAGCTACAGTGCTTCATCTCA [ISIS 327901] (chemistry not given here) [uniform 2′-MOE PS; targets mir-143] | significantly reduce the expression levels of 5 of 6 markers of adipocyte differentiation | did not appear to cause liver toxicity | dose responsive reduction of expression of all five markers of differentiation | more effective |  | 
3 | TGAGCTACAGTGCTTCATCTCA [ISIS 340927] (chemistry not given here) [5-10-7 2′-MOE gapmer PS; targets mature mir-143] |  | did not cause significant increases in liver toxicity |  |  | reduced expression of the adipocyte differentiation markers | effective at reducing insulin levels
